Measured values taken from US12583835B2, “Crystal form of nitroxoline prodrug, pharmaceutical composition containing same, and preparation method therefor and application thereof” (Jiangsu Yahong Meditech Co., Ltd., priority 2020, dated 2026).

Tests used:
[1] = Stability in liver microsome (human); format: in vitro ADME; settings: 2 μM, 30 minutes, 37° C.
Procedure: (§1) Experimental instruments: thermostatic oscillator (SHA-B, Guohua Instrument); centrifuge (5810R, Eppendorf), mass spectrometer (API4000, Applied), liquid chromatography (LC-30AD, Shimadzu); sampler (CTC Analytics AG System, CTC).
(§2) Experimental procedures: to 100 mM phosphate buffer was added 25 μg/mL alamethicin (Aldrich Reagents), 5 mM magnesium chloride and 0.5 mg/mL microsomes (XENOTECH) to prepare a reaction solution without coenzymes. To a portion of the reaction solution was added 1 mM reduced nicotinamide adenine dinucleotide phosphate (Aldrich Reagents) and 5 mM uridine diphosphate glucuronic acid (Aldrich Reagents) to prepare a reaction solution with coenzymes. […] Immediately after mixing well, 50 μL of the solution was collected as the 0-minute sample, and another 50 μL was collected after 30 minutes of incubation of the remaining sample at 37° C. The proteins in all collected samples were immediately precipitated, and the supernatants were collected by centrifugation, in which the compound concentrations were determined by LC/MS/MS.

[2] = Stability in liver microsome (dog); format: in vitro ADME; settings: 2 μM, 30 minutes, 37° C.
Procedure: as §1, §2

[3] = Stability in liver microsome (rat); format: in vitro ADME; settings: 2 μM, 30 minutes, 37° C.
Procedure: as §1, §2

[4] = Stability in liver microsome (mouse); format: in vitro ADME; settings: 2 μM, 30 minutes, 37° C.
Procedure: as §1, §2

[5] = Pharmacokinetic assay in dogs; format: in vivo; settings: beagles
Text: Nitroxoline is mainly metabolized by Phase II metabolism in the liver with a high metabolism rate, thus the in vivo half-life is short. In this experiment, after a single intravenous or oral administration of nitroxoline and the compound obtained in Example 1 to dogs, the changes in the concentration of the compound nitroxoline in dog plasma were studied, so as to evaluate the in vivo pharmacokinetic behaviors of nitroxoline and the compound obtained in Example 1.
Male beagles (Beijing Marshall Bioresources Co., Ltd., laboratory animal production license No.: SCXK (Beijing) 2016-0001, laboratory animal certificate No.: 11400600001728), 3 beagles per group, weight 10-13 kg, 20-22 months old, were fasted overnight before drug administration with free access to water, and food was given 4 hours after drug administration. The compound to be tested was put into an EP tube, dimethyl sulfoxide, Solutol® and sterile water for injection (the volume ratio of the three was 1:2:17, v:v:v) were added, and the EP tube was sonicated for 20 minutes to fully dissolve the compound (formulation concentration of the compound: 0.005 mmol/mL). The intravenous dose was 0.01 mmol/kg, and the oral dose was 0.1 mmol/kg. 0.3 ml of whole blood was collected from the jugular vein before drug administration (0 hour) and 0.0833, 0.25, 0.5, 0.75, 1, 2, 4, 6, 8, 10 and 12 hours after drug administration (the sampling points were adjusted according to the situation) and placed in a centrifuge tube containing EDTA-K2 (Aldrich Reagents) for anticoagulation, which was placed in crushed ice after sample collection. The tube was centrifuged at 1530 g for 10 minutes within 0.5 hours of sample collection. All clean plasma were isolated and placed in another clean centrifuge tube, which was placed in a −20° C. refrigerator until testing.
A series of solutions for standard curve was prepared. To 10 μL of solutions for standard curve and samples was added 1000 μL of internal standard working solution (a solution of 5 ng/mL verapamil (Aldrich Reagents), 50 ng/mL glibenclamide (Aldrich Reagents) and 50 ng/mL diclofenac (Aldrich Reagents) in acetonitrile) was added, and the resulting solution was vortexed for 5 minutes. After centrifuging at 4° C., 3700 rpm for 10 minutes, 60 μL of the supernatant was collected into a sample tube and mixed well with 120 μL of water, and 10 μL of the mixed solution was injected into the LC/MS system for determination. Pharmacokinetic parameters were calculated using WinNonlin V6.2 non-compartmental model.

- Percentage (%) of remaining compound in human liver microsomes ([1]; With coenzyme): 26.92%
- Percentage (%) of remaining compound in human liver microsomes ([1]; Without coenzyme): 59.42%
- Percentage (%) of remaining compound in dog liver microsomes ([2]; With coenzyme): 33.13%
- Percentage (%) of remaining compound in dog liver microsomes ([2]; Without coenzyme): 53.50%
- Percentage (%) of remaining compound in rat liver microsomes ([3]; With coenzyme): 3.64%
- Percentage (%) of remaining compound in rat liver microsomes ([3]; Without coenzyme): 46.82%
- Percentage (%) of remaining compound in mouse liver microsomes ([4]; With coenzyme): 0.09%
- Percentage (%) of remaining compound in mouse liver microsomes ([4]; Without coenzyme): 49.07%
- AUC0-inf of nitroxoline in plasma ([5]; intravenous 0.01 mmol/kg): 1290 ng*hmL^−1
- AUC0-inf of nitroxoline in plasma ([5]; oral 0.1 mmol/kg): 8750 ng*hmL^−1
Structure (SMILES): CC(C)C(=O)N1CCC[C@H]1C(=O)OCOc1ccc([N+](=O)[O-])c2cccnc12 [Compound obtained in Example 1, ((5-nitroquinolin-8-yl)oxy)methyl-isobutyryl-L-prolinate]
